# Source: patent publication US11725015B2, “Macrocyclic compound and uses thereof” (President and Fellows of Harvard College, priority 2017, dated 2023)
# What was measured:
# [1] = system: FaDu subcutaneous xenograft; assay: Antitumor effects in FaDu subcutaneous xenograft model in mice as monotherapy; format: in vivo
# Method: (§1) A human squamous cell carcinoma of the head and neck (SCCHN) cell line FaDu, which had been cultured in an RPMI-1640 medium containing 10% FBS, and penicillin and streptomycin, was adjusted to a concentration of 4.8×10^7 cells/mL with Hanks' Balanced Salt Solution to prepare a cell suspension. The cell suspension was inoculated in a volume of 100 μL into a subcutaneous part of a right flank of nude mice, 7 weeks of ages (CAnN.Cg-Foxn1nu/CrlCrlj, female, Charles River Laboratories Japan Inc.).
# (§2) On the basis of the volumes of tumors obtained on the first day of administration, the mice were grouped such that averages of the tumor volumes were substantially equal among the groups. Each test compound was dissolved in DMSO and a solution was stored at the freezer before use. Immediately before the administration, the stock solution was diluted in saline with 100 μM of hydroxypropyl-β-cyclodextrin. Each evaluation sample was intravenously administered at a maximum tolerable dose (MTD). Incidentally, the experiment was conducted on groups each consisting of 4 mice.
# [2] = system: FaDu subcutaneous xenograft; assay: Antitumor effects in FaDu subcutaneous xenograft model in combination with cetuximab in mice; format: in vivo
# Method: as §1, with “5×10^7” for “4.8×10^7”, “(CAnN.Cg-Foxnlnu/CrlCrlj,” for “(CAnN.Cg-Foxn1nu/CrlCrlj,”
# as §2, with “Each evaluation sample was intravenously administered at a maximum tolerable dose (MTD).” left out
# [3] = system: α-SMA positive-CAFs in the FaDu subcutaneous model; assay: Effect on α-SMA positive-CAFs in the FaDu subcutaneous model (Test Example 10); format: in vivo, mice; conditions: two days after administration
# Method: A human squamous cell carcinoma of the head and neck (SCCHN) cell line FaDu, which had been cultured in an RPMI-1640 medium containing 10% FBS, and penicillin and streptomycin, was adjusted to a concentration of 5×10^7 cells/mL with PBS to prepare a cell suspension. The cell suspension was inoculated in a volume of 100 μL into a subcutaneous part of a right flank of nude mice, 5 to 6 weeks of ages (CAnN.Cg-Foxnlnu/CrlCrlj, female, Charles River Laboratories Japan, Inc.). Ten days after cell inoculation, a test compound in saline with 100 μM of hydroxypropyl-β-cyclodextrin was intravenously administered at ½ MTD and MTD. The experiment was conducted on groups each consisting of 3 mice. Two days after administration, tumor samples were collected and fixed with IHC Zinc Fixative (BD Pharmingen) at 4° C. for 24 hr. Paraffin-embedded tissues were sectioned (3 μm), mounted on positively charged slides, and air-dried for 6 hr. Immunohistochemical staining of α-SMA was conducted using Ventana autostainer model Discover XT (Roche Diagnostics). Sections were deparaffinized, conditioned and the antigens were retrieved with proprietary buffers, EZPrep and CC1 (Ventana Medical Systems). Mouse anti-α-SMA monoclonal antibody conjugated with alkaline phosphatase (clone 1A4, Sigma) was applied at 5 μg/mL. Sections were incubated with the antibody for 6 hr. The detection was performed with RedMap kit (Ventana Medical Systems, Inc). Sections were dehydrated in graded ethanols, defatted in xylene replacement and covered with DPX (Merck KGaA). The serial tumor slices were deparaffinized and stained with Mayer's hematoxylin (Muto Pure Chemicals) for 1 min. Sections were dehydrated in graded ethanols, defatted in xylene replacement and covered with DPX (Merck KGaA).
# Immunostained slides were scanned using Vectra 2 Automated Slide Imaging System (Perkin Elmer Inc.). The area of the α-SMA-positive region in the whole tumor was quantified by counting the α-SMA-positive objects using inForm 2 software (PerkinElmer Inc.). Area of the tumor region was measured by assessing the hematoxylin-staining area using in Form 2 software (PerkinElmer Inc.). The area of the α-SMA positive region was normalized by the area of the tumor region. A suppression rate of the α-SMA positive area of the test compound-dosing group was calculated with the below formula, and shown in Table 10.
# [4] = system: human urothelial cancer cell line SW780; assay: SW780 growth inhibition assay; format: cell-based; conditions: 3 days incubation, CellTiter-Glo
# Method: (§3) In this assay, the growth inhibitory activities of test compounds in the human urothelial cancer cell line SW780 were measured. SW780 cells were maintained in RPMI-1640 medium containing 10% FBS, penicillin, and streptomycin in a 5% CO2 incubator (37° C.). To each well of a 96-well plate (Becton, Dickinson and Company, 353219), 100 μL of a SW780 cell suspension adjusted to a concentration of 3×10^4 cells/mL with the culture medium was added, and the cells were incubated overnight in a 5% CO2 incubator (37° C.). On the next day, 100 μL of Compound (1) or Halichondrin B in three-fold dilution series suspended in the culture medium was added to each well, and the resultant was incubated for 3 days in a 5% CO2 incubator (37° C.). Then, cell viability was determined by CellTiter-Glo® Luminescent Cell Viability Assay (Promega) with EnVision 2103 Multilabel Reader (Perkin-Elmer, Wellesley, Mass.). Value of the wells containing cells without adding the test compounds was defined as 100% and the value of the wells containing no cells was defined as 0%. The concentrations of the test compounds necessary for inhibiting the cell growth by 50% (i.e., an IC50 value) were calculated, and are shown in Table 16.
# [5] = system: human synovial sarcoma cell line HS-SY-II; assay: HS-SY-II growth inhibition assay; format: cell-based; conditions: 3 days incubation, CellTiter-Glo
# Method: as §3, with “human synovial sarcoma” for “human urothelial cancer”, “line HS-SY-II” for “line SW780”, “measured. […]” for “measured. SW780”, “in a DMEM” for “in RPMI-1640”, “a HS-SY-II” for “a SW780”, “Table 17.” for “Table 16.”
SMILES,Tumor Regression (%) ([1]; 0.2 mg/kg intravenously (MTD)),Tumor Regression on day 35 (%) ([2]; 0.05 mg/kg intravenously + cetuximab 20 mg/kg),Tumor Regression on day 35 (%) ([2]; 0.1 mg/kg intravenously + cetuximab 20 mg/kg),Suppression rate of α-SMA positive area (%) ([3]; 0.10 mg/kg intravenously),Suppression rate of α-SMA positive area (%) ([3]; 0.20 mg/kg intravenously),IC50 [4],IC50 [5],Tumor Regression (%) ([1]; 0.05 mg/kg intravenously (MTD)),Tumor Regression on day 35 (%) ([2]; 0.0125 mg/kg intravenously + cetuximab 20 mg/kg),Tumor Regression on day 35 (%) ([2]; 0.025 mg/kg intravenously + cetuximab 20 mg/kg),Suppression rate of α-SMA positive area (%) ([3]; 0.025 mg/kg intravenously),Suppression rate of α-SMA positive area (%) ([3]; 0.05 mg/kg intravenously)
C=C1C[C@@H]2CC[C@@]34C[C@H]5O[C@H]6[C@@H](O3)[C@H]3O[C@H](CC[C@@H]3O[C@H]6C5O4)CC(=O)O[C@@H]3[C@@H](C)[C@@H]4O[C@@H]5C[C@]6(C[C@@H]7O[C@]8(C[C@H](C)[C@@H]9O[C@H](CN)[C@H](O)C[C@@H]9O8)C[C@H](C)[C@@H]7O6)O[C@@H]5C[C@@H]4O[C@H]3C[C@H]3O[C@@H](CC[C@@H]1O2)C[C@@H](C)C3=C [Compound (1)],43%,38%,60%,21%,28%,0.017 nM,0.002 nM,–,–,–,–,–
"C=C1C[C@@H]2CC[C@@]34C[C@H]5O[C@H]6[C@@H](O3)[C@H]3O[C@H](CC[C@@H]3O[C@H]6[C@H]5O4)CC(=O)O[C@@H]3[C@@H](C)[C@@H]4O[C@@H]5C[C@]6(C[C@@H]7O[C@]8(C[C@H](C)[C@@H]9O[C@H]([C@@H](O)C[C@@H](O)CO)C[C@@H]9O8)C[C@H](C)[C@@H]7O6)O[C@@H]5C[C@@H]4O[C@H]3C[C@H]3O[C@@H](CC[C@@H]1O2)C[C@@H](C)C3=C [Halichondrin B, reference compound]",–,–,–,–,–,0.032 nM,0.01 nM,0%,−38%,−2%,7%,3%
